These results are taken from PMC4076210, “Discovery of Novel AKT Inhibitors with Enhanced Anti-Tumor Effects in Combination with the MEK Inhibitor” (PLoS ONE, 2014).

Molecules are shown by their SMILES.

Details of series [1]: method as in PMID 18381444. The following applies: mice; cited from earlier work.
The subject of the next series is HPAC tumor xenografts. Kind of series: Xenograft tumor growth inhibition, combination with MEK inhibitor. The format is in vivo, mouse. The following applies: 0.3 mg/kg daily, day 42. As to the method:
(§1) Tumors were initiated by injecting either cells (SKOV3, CAPAN-2 and HPAC) or a tumor fragments (BT474) subcutaneously into 6–8 week female athymic nude (SKOV3) and SCID (all others) mice. Once tumors reached between 120 and 300 mm^3, mice were randomized according to tumor volume into groups of n = 7–10 mice per treatment. GSK2110183 and GSK2141795 were administered daily at various doses by oral gavage. In combination experiments, GSK1120212 was also administered daily by oral gavage. Tumor volumes and body weight were measured twice weekly, tumor volume was measured with calipers and calculated using equation: […]. Results are represented as percent inhibition on completion of dosing = 100 x [1- average growth of drug-treated population/average growth of vehicle-treated control population].

A further series relates to CAPAN-2 tumor xenografts. The description is as above. The format is in vivo, mouse. The following applies: 0.3 mg/kg, day 69. The protocol: as §1

Regarding `CCn1c(-c2nonc2N)nc2c(C#CC(C)(C)O)ncc(OC[C@H]3CCCNC3)c21` [GSK690693], the “hyperglycemia (blood glucose)” value in series [1] was ~500 mg/dL.
Regarding `CC(=O)Nc1cccc(-n2c(=O)n(C3CC3)c(=O)c3c(Nc4ccc(I)cc4F)n(C)c(=O)c(C)c32)c1` [GSK1120212, trametinib, reference compound], the results for the TGI with HPAC tumor xenografts and with CAPAN-2 tumor xenografts were 65% and 90%, respectively.
